Key:
[1] = test system: cerebral oxidative stress induced in mice by doxorubicin; test: In vivo assay of cerebral oxidative stress induced in mice by doxorubicin; details: for Brain/BWi its own / CAT/pr its own / GPX/pr its own / GSH/pr its own / GST/pr its own / Prot. Hmg its own / Prot. Ox/pr its own / SOD/pr its own / Brain/BWi vehicle / CAT/pr vehicle / GPX/pr vehicle / GSH/pr vehicle / GST/pr vehicle / Prot. Hmg vehicle / Prot. Ox/pr vehicle / SOD/pr vehicle: % inhibition relative to variation due to doxorubicin alone, oxidized animals; for Brain/BWi its own / CAT/pr its own / GPX/pr its own / GSH/pr its own / GST/pr its own / Prot. Hmg its own / Prot. Ox/pr its own / SOD/pr its own: as function of its own control; for Brain/BWi vehicle / CAT/pr vehicle / GPX/pr vehicle / GSH/pr vehicle / GST/pr vehicle / Prot. Hmg vehicle / Prot. Ox/pr vehicle / SOD/pr vehicle: as function of vehicle; for Brain/BWi / CAT/pr / GPX/pr / GSH/pr / GST/pr / Prot. Hmg / Prot. Ox/pr / SOD/pr: % variation relative to the vehicle, 50 mg/kg IP x3 days (D = doxorubicin alone); for Brain/BWi / CAT/pr / GPX/pr / GSH/pr / GST/pr / Prot. Hmg / Prot. Ox/pr / SOD/pr / Mean % variation relative to the vehicle: healthy animals; for Mean % variation relative to the vehicle: 50 mg/kg IP days 0, 1 and 2, mean over all parameters, approximate safety index (D = doxorubicin alone); for overall percentage inhibition: with respect to Its own vehicle
Procedure: The assay was carried out on compounds (1) and (3)-(6) and on edaravone (E) as comparative compound.
10 mice were used for each treatment group. For each compound 50 mg/kg were administered intraperitoneally (IP) for three consecutive days (day 0, 1 and 2); half the animals (5) also received IP 16.7 mg/kg of doxorubicin immediately after the first treatment (day 0). On the day after the last administration (day 3) the animals were killed by neck dislocation and the brains were removed, weighed and frozen in liquid nitrogen.
For the analyses of oxidative stress, 100 mg/ml of brain homogenate was prepared in Hebe buffer (pH 7.4 EDTA/HEPES^(**)) containing a mixture of enzyme inhibitors (Leupeptin, Pepstatin, Aprotinin, BHA). • ^(*) Hypotonic Extraction Buffer • ^(**) 4-2-hydroxyethyl-1-piperazinyl-ethanesulphonic acid
The evaluation parameters were: • BrW/BWi: ratio between final brain weight and initial body weight (day 0); • Prot. Hmg: total proteins in the homogenate (BCA method, i.e. bicinchoninic acid); • Prot. Ox: oxidized proteins in the Hmg by means of a colorimetric method using […] (DNPH); • GSH: reduced glutathione in the supernatant (sn) of the Hmg, obtained after precipitation with metaphosphoric acid (MPA), by means of a colorimetric method using […] (DTNB); • CAT: catalase in the Hmg by a colorimetric method using potassium dichromate; • SOD: superoxide dismutase by a colorimetric method using SOD Reagent (xanthine, EDTA, nitroblue tetrazole, Na2CO3, BSA, i.e. bovine serum albumin); • GST: glutathione S-transferase in the supernatant by a colorimetric method using chlorodinitrobenzene (CDNB) and GSH; and • GPx: glutathione peroxidase in the supernatant after addition of GSH and tert butyl hydroperoxide (t-BuOOH), heating and precipitation with MPA; followed by GSH method with DTNB.
All the parameters, with the exclusion of Brain/BWi and Prot. Hmg, were normalized for total Hmg proteins (Table 3). The D value standard deviations and the % incidence relative to V are given in italics.
The mean % effect, on all the parameters simultaneously, of the triple treatment in the healthy animals, as mean percentage variation relative to the vehicle (table 4). This value is useful as an approximate safety index of the oxidative state of the brain, i.e. the capacity of the compounds of the invention not to alter cerebral homeostasis in healthy animals.
The effect of the tested compounds on the "oxidized" animals was given as % inhibition relative to the percentage variation due to doxorubicin alone. The effect of the compounds on the oxidized animals can be expressed both as a function of the values of the vehicle (healthy, vehicle only) and as a function of the value of its own control (healthy, compound only): • Vehicle: percentage [(Compound+D)/V]x100/[(V+D)/V]x100 • Its own: percentage [(Compound+D)/Compound]x100/[(V+D)/V]x100

[2] = Acute toxicity study, intraperitoneal single dose (OECD guideline no. 420); type: in vivo; details: result in words, with reference to Example 13
Procedure: This study was carried out with the purpose of investigating the toxicity of a single dose of the listed compounds administered to ICR (CD-1) female mice. According to the current OECD guideline no.
The mice used were all female and were treated by intraperitoneal injection administration. The animals were observed individually and regularly for the first 4 hours and within 24 hours after administration, and then twice a day for the whole observation period. As soon as the animals were stabilized, observations at the weekend were undertaken once only during the day.
The evaluated parameters included the survival, body weight development, variations in skin and fur, changes in ocular, conjunctival and buccal mucous membranes, changes in activities of the respiratory, circulatory, autonomous and central nervous systems, changes in somatomotor activity and in behaviour.
Any appearance of tremors, convulsions, salivation, diarrhea, lethargy, drowsiness and coma were attentively and regularly monitored. At the end of the observation period, a post-mortem was carried out on all the animals.

[3] = mouse, in vivo
Procedure: The ability of the compounds of the invention to penetrate the brain was investigated by measuring their brain/plasma (B/P) concentration ratio in mice following intraperitoneal administration.
Female CD-1 mice were used (n=3 for each time period) and received the compounds of the invention by intraperitoneal administration, in 25 mg/kg doses in a 0.5% NaHCO3 buffer (pH 8.3). At predefined intervals following said administration, i.e. 5, 15, 30 and 60 minutes, the mice were killed and both plasma and total brain tissue were collected.
Specifically, after anaesthesia with ether, the animals were bled by blood withdrawal from the abdominal aorta then immediately decapitated. The blood samples were collected into plasma separator tubes containing Li-Heparin as anticoagulant and centrifuged. The resulting plasma was then stored at -20 °C. The brain was rapidly removed from the cranium and weighed, subsequently frozen and stored at -20 °C before treatment by homogenization and HPLC analysis.
The plasma was thawed and mixed with an equal volume of the extraction solution. This extraction solution was a mixture of aqueous and organic solvents whose composition had been previously determined by HPLC undertaken for each analyte.
1 ml of solution was then extracted by adding 20 µl of 70% HClO4 then centrifuged at 15,500g for 5 minutes and injected into the HPLC.
Each brain was thawed and homogenized with the extraction solution to provide a final composition of 4 ml/1g of tissue by means of an Ultra-Turrax blender and sonicated for 5 minutes. After centrifugation of the homogenate at 15,500g for 5 minutes, the resulting solution was treated with HClO4, as indicated for the plasma.
Specific chromatographic conditions had been developed for each analyte, the calibration curve being constructed for plasma and brain homogenate.

[4] = pH at the semi-neutralization point of titration (pKa); type: physicochemical; details: titration with 0.1 N NaOH or HCl
Procedure: The following equipment was used during the implementation of all the examples: • for melting point determination a Buchi B-540 instrument was used; • for pH determination at the semi-neutralization point of titration (pKa) a Mettler Toledo DL-50 instrument was used with a 0.1 N xNaOH or HCl solution; • the ^1H-NMR spectra were recorded at 300 MHz and the ^13C-NMR spectra were recorded at 75 MHz using a Varian Unity 300 instrument; • spectrophotometric measurements were carried out using a Lambda Perkin Elmer 15 UV/Vis spectrophotometer for the DPPH assay and a Wallac Victor 1420 multilabel counter spectrophotometer.

Row | SMILES | Brain/BWi its own [1] | CAT/pr its own [1] | GPX/pr its own [1] | GSH/pr its own [1] | GST/pr its own [1] | Prot. Hmg its own [1] | Prot. Ox/pr its own [1] | SOD/pr its own [1] | Brain/BWi vehicle [1] | CAT/pr vehicle [1] | GPX/pr vehicle [1] | GSH/pr vehicle [1] | GST/pr vehicle [1] | Prot. Hmg vehicle [1] | Prot. Ox/pr vehicle [1] | SOD/pr vehicle [1] | Brain/BWi [1] | CAT/pr [1] | GPX/pr [1] | GSH/pr [1] | also measured
1 | CC1(C)CC(=O)C=C(NCCN2CCCCC2)C1 [(1), 5,5-dimethyl-3-(2-(piperidin-1-yl)ethylamino)cyclohex-2-enone] | -76.8% | -32.6% | -16.2% | -8.8% | 5.5% | -16.9% | -95.9% | -9.1% | -33.3% | 77.3% | 22.2% | -2.4% | 16.5% | 22.9% | -82.6% | 29.4% | -3.2% | -7.1% | -7.6% | -1.5% | GST/pr [1]: -2.3%; Prot. Hmg [1]: 5.3%; Prot. Ox/pr [1]: 1.4%; SOD/pr [1]: -5.9%; Mean % variation relative to the vehicle [1]: -4.3%; overall percentage inhibition [1]: greater than 40%; toxicity evaluation in vivo (tolerability) [2]: well tolerated; bioavailability at the target site / crossing of the blood-brain barrier [3]: particularly bioavailable, as well as able to cross the blood-brain barrier in effective amounts; Acid dissociation constants: pKa1 [4]: 2.82; Acid dissociation constants: pKa2 [4]: 8.64
2 | O=C1C=C(NCCN2CCCCC2)CC(c2ccccc2)C1 (stereo not shown) [(3), 5-phenyl-3-(2-(piperidin-1-yl)ethylamino)cyclohex-2-enone] | -30.4% | -48.5% | 23.2% | 0.0% | 37.4% | -101.2% | -116.3% | 107.7% | -76.8% | 3.0% | -20.2% | -7.2% | -48.4% | -32.5% | -107.0% | 86.7% | 1.0% | -9.2% | 2.4% | 0.4% | GST/pr [1]: 4.1%; Prot. Hmg [1]: 2.3%; Prot. Ox/pr [1]: -7.8%; SOD/pr [1]: 1.1%; Mean % variation relative to the vehicle [1]: -1.3%; overall percentage inhibition [1]: greater than 40%; bioavailability at the target site / crossing of the blood-brain barrier [3]: particularly bioavailable, as well as able to cross the blood-brain barrier in effective amounts; Acid dissociation constants: pKa1 [4]: 2.82; Acid dissociation constants: pKa2 [4]: 8.46
3 | CC1(C)CC(=O)C=C(NN2CCCCC2)C1 [(6), 5,5-dimethyl-3-(piperidin-1-ylamino)cyclohex-2-enone] | -18.8% | -28.8% | -100.0% | -72.8% | -36.3% | -97.6% | 45.9% | -60.8% | 10.1% | 6.8% | -34.3% | -10.4% | -18.7% | -8.4% | 21.5% | -2.1% | -2.5% | -6.4% | -8.7% | -9.6% | GST/pr [1]: -2.5%; Prot. Hmg [1]: 8.4%; Prot. Ox/pr [1]: -5.6%; SOD/pr [1]: -10.8%; Mean % variation relative to the vehicle [1]: -5.4%; overall percentage inhibition [1]: greater than 40%; toxicity evaluation in vivo (tolerability) [2]: well tolerated; bioavailability at the target site / crossing of the blood-brain barrier [3]: particularly bioavailable, as well as able to cross the blood-brain barrier in effective amounts; pKa ([4]; read-out: Acid dissociation constant: pKa): 2.62
